Assays:
Type in all cases: in vivo
[1] = test system: barnyardgrass (Echinochloa crus-galli); test: Test A pre-/postemergence plant response
Text: (§1) Seeds of barnyardgrass (Echinochloa crus-galli), large crabgrass (Digitaria sanguinalis), giant foxtail (Setaria faberii), morningglory (Ipomoea spp.), pigweed (Amaranthus retroflexus), velvetleaf (Abutilon theophrasti), wheat (Triticum aestivum) and corn (Zea mays) were planted into a blend of loam soil and sand and treated preemergence with a directed soil spray using test chemicals formulated in a non-phytotoxic solvent mixture which included a surfactant. At the same time these species were also treated with postemergence applications of test compounds formulated in the same manner.
(§2) Plants ranged in height from two to ten cm and were in the one- to two-leaf stage for the postemergence treatment. Treated plants and untreated controls were maintained in a greenhouse for approximately ten days, after which time all treated plants were compared to untreated controls and visually evaluated for injury. Plant response ratings, summarized in Table A, are based on a 0 to 100 scale where 0 is no effect and 100 is complete control. A dash (-) response means no test result.

[2] = test system: corn (Zea mays); test: Test A pre-/postemergence plant response
Text: as §1, §2

[3] = test system: giant foxtail (Setaria faberii); test: Test A pre-/postemergence plant response
Text: as §1, §2

[4] = test system: large crabgrass (Digitaria sanguinalis); test: Test A pre-/postemergence plant response
Text: as §1, §2

[5] = test system: morningglory (Ipomoea spp.); test: Test A pre-/postemergence plant response
Text: as §1, §2

[6] = test system: pigweed (Amaranthus retroflexus); test: Test A pre-/postemergence plant response
Text: as §1, §2

[7] = test system: velvetleaf (Abutilon theophrasti); test: Test A pre-/postemergence plant response
Text: as §1, §2

[8] = test system: wheat (Triticum aestivum); test: Test A pre-/postemergence plant response
Text: as §1, §2

[9] = test system: barnyardgrass (Echinochloa crus-galli); test: Test B flooded paddy test; settings: for Plant response rating, Flood, Barnyardgrass: 250 g ai/ha, flooded paddy test, visual rating on 0 to 100 scale (0 no effect, 100 complete control) after 13 to 15 days; for Plant response rating, Barnyardgrass: Flood (flooded paddy test), 13 to 15 days
How it was run: (§3)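 Visual scores run from 0 (no effect) to 100 (complete control), assigned by comparison with controls 13 to 15 days after treatment. Test compounds went straight into water standing 3 cm above the soil, around plants at the 2-leaf stage kept in a greenhouse.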

[10] = test system: ducksalad (Heteranthera limosa); test: Test B flooded paddy test; settings: for Plant response rating, Flood, Ducksalad: 250 g ai/ha, flooded paddy test, visual rating on 0 to 100 scale (0 no effect, 100 complete control) after 13 to 15 days; for Plant response rating, Ducksalad: Flood (flooded paddy test), 13 to 15 days
How it was run: as §3

[11] = test system: rice (Oryza sativa); test: Test B flooded paddy test; settings: for Plant response rating, Flood, Rice: 250 g ai/ha, flooded paddy test, visual rating on 0 to 100 scale (0 no effect, 100 complete control) after 13 to 15 days; for Plant response rating, Rice: Flood (flooded paddy test), 13 to 15 days
How it was run: as §3

[12] = test system: umbrella sedge (Cyperus difformis); test: Test B flooded paddy test; settings: for Plant response rating, Flood, Sedge, Umbrella: 250 g ai/ha, flooded paddy test, visual rating on 0 to 100 scale (0 no effect, 100 complete control) after 13 to 15 days; for Plant response rating, Sedge, Umbrella: Flood (flooded paddy test), 13 to 15 days
How it was run: as §3

[13] = Postemergence, 125 g ai/ha, 0 to 100 scale where 0 is no effect and 100 is complete control
[14] = Postemergence, 500 g ai/ha, 0 to 100 scale, 0 = no effect, 100 = complete control, approx. ten days
[15] = Preemergence, 125 g ai/ha, 0 to 100 scale, 0 = no effect, 100 = complete control
[16] = Preemergence, 500 g ai/ha, visual injury, 0 to 100 scale (0 no effect, 100 complete control), approx. ten days
[17] = 62 g ai/ha, scale of 0 to 100 where 0 is no effect and 100 is complete control
[18] = 125 g ai/ha, scale 0 to 100, 0 is no effect, 100 is complete control
[19] = Flood, 31 g ai/ha, scale 0 to 100 (0 no effect, 100 complete control)

Compound: CCCn1c(-c2ccccc2F)ncc(C(=O)C2=C(O)CCCC2=O)c1=O [Compound 101]
- Plant response rating, Barnyardgrass [1, 13]: 80
- Plant response rating, Barnyardgrass [1, 14]: 90
- Plant response rating, Barnyardgrass [1, 15]: 20
- Plant response rating, Barnyardgrass [1, 16]: 70
- Plant response rating, Corn [2, 13]: 0
- Plant response rating, Corn [2, 14]: 10
- Plant response rating, Corn [2, 15]: 0
- Plant response rating, Corn [2, 16]: 0
- Plant response rating, Foxtail, Giant [3, 13]: 60
- Plant response rating, Foxtail, Giant [3, 14]: 80
- Plant response rating, Foxtail, Giant [3, 15]: 30
- Plant response rating, Foxtail, Giant [3, 16]: 50
- Plant response rating, Crabgrass, Large [4, 13]: 90
- Plant response rating, Crabgrass, Large [4, 14]: 90
- Plant response rating, Crabgrass, Large [4, 15]: 70
- Plant response rating, Crabgrass, Large [4, 16]: 90
- Plant response rating, Morningglory [5, 13]: 60
- Plant response rating, Morningglory [5, 14]: 70
- Plant response rating, Morningglory [5, 15]: 80
- Plant response rating, Morningglory [5, 16]: 80
- Plant response rating, Pigweed [6, 13]: 90
- Plant response rating, Pigweed [6, 14]: 100
- Plant response rating, Pigweed [6, 15]: 70
- Plant response rating, Pigweed [6, 16]: 80
- Plant response rating, Velvetleaf [7, 13]: 100
- Plant response rating, Velvetleaf [7, 14]: 100
- Plant response rating, Velvetleaf [7, 15]: 80
- Plant response rating, Velvetleaf [7, 16]: 100
- Plant response rating, Wheat [8, 13]: 0
- Plant response rating, Wheat [8, 14]: 0
- Plant response rating, Wheat [8, 15]: 0
- Plant response rating, Wheat [8, 16]: 0
- Plant response rating, Flood, Barnyardgrass [9]: 40
- Plant response rating, Barnyardgrass [9, 17]: 40
- Plant response rating, Barnyardgrass [9, 18]: 40
- Barnyardgrass plant response rating [9, 19]: 20
- Plant response rating, Flood, Ducksalad [10]: 30
- Plant response rating, Ducksalad [10, 17]: 30
- Plant response rating, Ducksalad [10, 18]: 30
- Ducksalad plant response rating [10, 19]: 20
- Plant response rating, Flood, Rice [11]: 20
- Plant response rating, Rice [11, 17]: 0
- Plant response rating, Rice [11, 18]: 0
- Rice plant response rating [11, 19]: 0
- Plant response rating, Flood, Sedge, Umbrella [12]: 65
- Plant response rating, Sedge, Umbrella [12, 17]: 20
- Plant response rating, Sedge, Umbrella [12, 18]: 30
- Sedge, Umbrella plant response rating [12, 19]: 0

Compound: CCCn1c(-c2ccc(OC)cc2)ncc(C(=O)C2=C(O)CCCC2=O)c1=O [Compound 112]
- Plant response rating, Barnyardgrass [1, 13]: 60
- Plant response rating, Barnyardgrass [1, 14]: 90
- Plant response rating, Barnyardgrass [1, 15]: 0
- Plant response rating, Barnyardgrass [1, 16]: 80
- Plant response rating, Corn [2, 13]: 0
- Plant response rating, Corn [2, 14]: 20
- Plant response rating, Corn [2, 15]: 0
- Plant response rating, Corn [2, 16]: 0
- Plant response rating, Foxtail, Giant [3, 13]: 70
- Plant response rating, Foxtail, Giant [3, 14]: 80
- Plant response rating, Foxtail, Giant [3, 15]: 20
- Plant response rating, Foxtail, Giant [3, 16]: 60
- Plant response rating, Crabgrass, Large [4, 13]: 80
- Plant response rating, Crabgrass, Large [4, 14]: 90
- Plant response rating, Crabgrass, Large [4, 15]: 60
- Plant response rating, Crabgrass, Large [4, 16]: 100
- Plant response rating, Morningglory [5, 13]: 90
- Plant response rating, Morningglory [5, 14]: 100
- Plant response rating, Morningglory [5, 15]: 0
- Plant response rating, Morningglory [5, 16]: 80
- Plant response rating, Pigweed [6, 13]: 90
- Plant response rating, Pigweed [6, 14]: 100
- Plant response rating, Pigweed [6, 15]: 20
- Plant response rating, Pigweed [6, 16]: 100
- Plant response rating, Velvetleaf [7, 13]: 100
- Plant response rating, Velvetleaf [7, 14]: 100
- Plant response rating, Velvetleaf [7, 15]: 40
- Plant response rating, Velvetleaf [7, 16]: 70
- Plant response rating, Wheat [8, 13]: 0
- Plant response rating, Wheat [8, 14]: 10
- Plant response rating, Wheat [8, 15]: 0
- Plant response rating, Wheat [8, 16]: 0
- Plant response rating, Flood, Barnyardgrass [9]: 40
- Plant response rating, Barnyardgrass [9, 17]: 35
- Plant response rating, Flood, Ducksalad [10]: 95
- Plant response rating, Ducksalad [10, 17]: 85
- Plant response rating, Flood, Rice [11]: 15
- Plant response rating, Rice [11, 17]: 0
- Plant response rating, Flood, Sedge, Umbrella [12]: 90
- Plant response rating, Sedge, Umbrella [12, 17]: 85
